Assay results from PubChem BioAssay AID192 (DTP/NCI, 2004).
Toxic doses and inconclusive results are not listed.

Tested on: BDF1 mice, B16 melanoma ip, median survival T/C
Assay: NCI In Vivo Anticancer Drug Screen. Data for tumor model B16 Melanoma (intraperitoneal) in B6D2F1 (BDF1) mice
Settings: endpoint: median survival time, higher = longer survival
Procedure, shortened: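 Read-out: survival or tumor size, given as treated/control ratio. Controls received vehicle only; animals bore transplantable tumors.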

[1] = dose: 100.0 mg/kg/injection, schedule: Q01DX009 (ip), vehicle: saline with Tween-80
[2] = dose: 200.0 mg/kg/injection, schedule: Q01DX009 (ip), vehicle: saline with Tween-80
[3] = dose: 100.0 mg/kg/injection, schedule: Q01DX009 (ip), vehicle: Klucel (hydroxypropylcellulose) (HPC)

For `C/C=C1/C[C@@H](C)[C@@](C)(O)C(=O)OCC2=CC[N+]3([O-])CC[C@@H](OC1=O)[C@@H]23` (stereo partly drawn), which T/C (dose: 10.0 mg/kg/injection, schedule: Q01DX009 (ip), vehicle: saline) is on record?
Its T/C is 102 % of control.

And the T/C (dose: 20.0 mg/kg/injection, schedule: Q01DX009 (ip), vehicle: saline)?
Its T/C is 106 % of control.

What about the T/C (dose: 40.0 mg/kg/injection, schedule: Q01DX009 (ip), vehicle: saline) of the same compound?
The T/C was 113 % of control.

What about the T/C (dose: 80.0 mg/kg/injection, schedule: Q01DX009 (ip), vehicle: saline) of the same compound?
The T/C was 102 % of control.

With `Cc1ccc([N+](=O)[O-])c2ccccc12` as the compound, how does the T/C [1] read?
The T/C was 97 % of control.

What about the T/C [2] of the same compound?
Its T/C is 88 % of control.

`O=C(C=C(C(F)(F)Cl)C(F)(F)Cl)c1cccs1` was tested. Which T/C (dose: 0.31 mg/kg/injection, schedule: Q01DX009 (ip), vehicle: saline) did it give?
Its T/C is 97 % of control.

And the T/C (dose: 0.62 mg/kg/injection, schedule: Q01DX009 (ip), vehicle: saline)?
The T/C was 92 % of control.

And the T/C (dose: 2.5 mg/kg/injection, schedule: Q04DX003 (ip), vehicle: saline)?
The T/C was 97 % of control.

And the T/C (dose: 5.0 mg/kg/injection, schedule: Q04DX003 (ip), vehicle: saline)?
The T/C was 105 % of control.

What about the T/C (dose: 10.0 mg/kg/injection, schedule: Q04DX003 (ip), vehicle: saline) of the same compound?
Its T/C is 90 % of control.

For `CCCCCCC1CCC(N)CC1` (stereo not drawn), which T/C (dose: 12.5 mg/kg/injection, schedule: Q01DX009 (ip), vehicle: Klucel (hydroxypropylcellulose) (HPC)) is on record?
Its T/C is 86 % of control.

What does the source list for `O=C(NC(=O)C(Cl)Cl)OC1c2cc(Cl)ccc2-c2c(Cl)cc(Cl)cc21` (stereo not drawn)?
T/C (dose: 3.0 mg/kg/injection, schedule: Q01DX009 (ip), vehicle: saline with Tween-80): 93 % of control; T/C (dose: 6.0 mg/kg/injection, schedule: Q01DX009 (ip), vehicle: saline with Tween-80): 97 % of control; T/C (dose: 12.0 mg/kg/injection, schedule: Q01DX009 (ip), vehicle: saline with Tween-80): 86 % of control

For `N#CCc1ccccc1C(=O)O`, which T/C (dose: 100.0 mg/kg/injection, schedule: Q04DX003 (ip), vehicle: gum acacia) is on record?
The T/C was 97 % of control.

Which T/C [1] does the source give for `Oc1ccc2ccccc2c1N=Nc1ccc(F)cc1` here?
The T/C was 119 % of control.

And the T/C (dose: 400.0 mg/kg/injection, schedule: Q01DX009 (ip), vehicle: saline with Tween-80)?
The T/C was 108 % of control.

`O=C1C=CC(=O)C2=C1CCCC2` was tested. Which T/C (dose: 2.9 mg/kg/injection, schedule: Q01DX009 (ip), vehicle: saline with Tween-80) did it give?
The T/C was 87 % of control.

And the T/C (dose: 4.5 mg/kg/injection, schedule: Q01DX009 (ip), vehicle: saline with Tween-80)?
The T/C was 87 % of control.

With `Nc1ccc(-c2ccc(N)c(Cl)c2)cc1Cl` as the compound, how does the T/C (dose: 100.0 mg/kg/injection, schedule: Q04DX003 (ip), vehicle: Klucel (hydroxypropylcellulose) (HPC)) read?
Its T/C is 111 % of control.

And the T/C (dose: 200.0 mg/kg/injection, schedule: Q04DX003 (ip), vehicle: Klucel (hydroxypropylcellulose) (HPC))?
The T/C was 108 % of control.

And the T/C (dose: 400.0 mg/kg/injection, schedule: Q04DX003 (ip), vehicle: Klucel (hydroxypropylcellulose) (HPC))?
The T/C was 100 % of control.

Which T/C (dose: 50.0 mg/kg/injection, schedule: Q01DX009 (ip), vehicle: saline with Tween-80) does the source give for `COC(=O)C(Br)C1CCCCC1` (stereo not drawn) here?
The T/C was 100 % of control.

What about the T/C [1] of the same compound?
The T/C was 103 % of control.

And the T/C [2]?
Its T/C is 99 % of control.

`O=C(Nc1ccc([N+](=O)[O-])cc1)Nc1ccc([N+](=O)[O-])c(C(F)(F)F)c1` was tested. Which T/C (dose: 6.25 mg/kg/injection, schedule: Q01DX009 (ip), vehicle: saline with Tween-80) did it give?
The T/C was 100 % of control.

And the T/C (dose: 12.5 mg/kg/injection, schedule: Q01DX009 (ip), vehicle: saline with Tween-80)?
Its T/C is 100 % of control.

And the T/C (dose: 25.0 mg/kg/injection, schedule: Q01DX009 (ip), vehicle: saline with Tween-80)?
The T/C was 90 % of control.

Which T/C [3] does the source give for `C=C1C(=O)OC2C=C(C)C3C(O)CC(C)(O)C3CC12` (stereo not drawn) here?
The T/C was 88 % of control.

Which results are given for `Cn1cnc2c1c(=O)[nH]c(=O)n2C`?
T/C [3]: 109 % of control; T/C (dose: 200.0 mg/kg/injection, schedule: Q01DX009 (ip), vehicle: Klucel (hydroxypropylcellulose) (HPC)): 111 % of control; T/C (dose: 400.0 mg/kg/injection, schedule: Q01DX009 (ip), vehicle: Klucel (hydroxypropylcellulose) (HPC)): 109 % of control

Which T/C (dose: 0.01 mg/kg/injection, schedule: Q01DX009 (ip), vehicle: saline) does the source give for `CNC1=C(N2CC2)C(=O)C(NC)=C(N2CC2)C1=O` here?
Its T/C is 102 % of control.

And the T/C (dose: 0.1 mg/kg/injection, schedule: Q01DX009 (ip), vehicle: saline)?
The T/C was 108 % of control.

And the T/C (dose: 0.2 mg/kg/injection, schedule: Q01DX009 (ip), vehicle: saline)?
Its T/C is 94 % of control.

With `CC[n+]1c(-c2ccccc2)c2cc(N)ccc2c2ccc(N)cc21` as the compound, how does the T/C (dose: 0.75 mg/kg/injection, schedule: Q01DX009 (ip), vehicle: water) read?
The T/C was 98 % of control.

What about the T/C (dose: 1.0 mg/kg/injection, schedule: Q01DX009 (ip), vehicle: saline) of the same compound?
Its T/C is 95 % of control.

What about the T/C (dose: 1.5 mg/kg/injection, schedule: Q01DX009 (ip), vehicle: water) of the same compound?
The T/C was 106 % of control.

And the T/C (dose: 1.56 mg/kg/injection, schedule: Q01DX009 (ip), vehicle: saline)?
The T/C was 105 % of control.

And the T/C (dose: 2.0 mg/kg/injection, schedule: Q01DX009 (ip), vehicle: saline)?
The T/C was 95 % of control.

And the T/C (dose: 3.0 mg/kg/injection, schedule: Q01DX009 (ip), vehicle: water)?
The T/C was 108 % of control.

And the T/C (dose: 3.12 mg/kg/injection, schedule: Q01DX009 (ip), vehicle: saline)?
Its T/C is 158 % of control.

And the T/C (dose: 4.0 mg/kg/injection, schedule: Q01DX009 (ip), vehicle: saline sonified)?
Its T/C is 120 % of control.

And the T/C (dose: 4.0 mg/kg/injection, schedule: Q01DX009 (ip), vehicle: saline)?
Its T/C is 108 % of control.

And the T/C (dose: 6.0 mg/kg/injection, schedule: Q01DX009 (ip), vehicle: water)?
The T/C was 112 % of control.

And the T/C (dose: 8.0 mg/kg/injection, schedule: Q01DX009 (ip), vehicle: saline sonified)?
The T/C was 115 % of control.

And the T/C (dose: 8.0 mg/kg/injection, schedule: Q01DX009 (ip), vehicle: saline)?
Its T/C is 108 % of control.
